Results as given in PubChem BioAssay (NCI).
Values joined by “and” are separate entries in the source; they are usually repeats but may differ in a detail not shown here. Equal entries are not always repeated.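 Growth conditions: 96-well plates. Treatment: test compound, 48 hours, 5 concentrations. Analysis: linear interpolation between bracketing concentrations; unreached endpoints set to highest concentration. GI50 is the concentration that inhibits growth by half. TGI: total growth inhibition.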

Tests used:
Assay in all cases: NCI anticancer screen, dose series, 48 h
T-47D breast = test system: T-47D breast
HL-60(TB) leukemia = test system: HL-60(TB) leukemia
CAKI-1 renal = test system: CAKI-1 renal
SR leukemia = test system: SR leukemia
HOP-92 NSCLC = test system: HOP-92 NSCLC
MDA-MB-231 breast = test system: MDA-MB-231 breast
HT29 colon = test system: HT29 colon
DU-145 prostate = test system: DU-145 prostate
LOX IMVI melanoma = test system: LOX IMVI melanoma
SF-295 CNS = test system: SF-295 CNS

| SMILES | GI50 (T-47D breast) | TGI (T-47D breast) | GI50 (HL-60(TB) leukemia) | TGI (HL-60(TB) leukemia) | GI50 (CAKI-1 renal) | TGI (CAKI-1 renal) | GI50 (SR leukemia) | TGI (SR leukemia) | GI50 (HOP-92 NSCLC) [µM] | TGI (HOP-92 NSCLC) [µM] | GI50 (MDA-MB-231 breast) | TGI (MDA-MB-231 breast) | GI50 (HT29 colon) | TGI (HT29 colon) | GI50 (DU-145 prostate) | TGI (DU-145 prostate) | GI50 (LOX IMVI melanoma) | TGI (LOX IMVI melanoma) | GI50 (SF-295 CNS) | TGI (SF-295 CNS) |
| --- | --- | --- | --- | --- | --- | --- | --- | --- | --- | --- | --- | --- | --- | --- | --- | --- | --- | --- | --- | --- |
| O=C(/C=C/C=C/c1ccccc1)c1ccco1 | 7.5 µM | 37.5 µM | 10 µM | 97.6 µM | 16 µM | 32.8 µM | 1.86 µM | 11.2 µM | 7.96 | 43.7 | 22.7 µM | 57.1 µM | 16.7 µM | 33.5 µM | 12.5 µM | 25.4 µM | 13.7 µM | 27.9 µM | 13.2 µM | 34.6 µM |
| CNCCCNc1nc2ccccc2c2c(=O)c3cc(OC)ccc3sc12 | 2.22 µM | 5.61 µM | 1.95 µM | 4.04 µM | 1.66 µM | 3.17 µM | 3.55 µM | > 100 µM | 1.35 | 5.67 | 1.52 µM | 2.98 µM | 1.72 µM | 3.56 µM | 1.78 µM | 3.23 µM | 1.57 µM | 2.93 µM | 1.82 µM | 3.34 µM |
| CCCOC(=O)c1c(C)n(C)c2scc[n+]12 | 38.5 µM | > 100 µM | > 100 µM | > 100 µM | 39.9 µM | > 100 µM | 64 µM | > 100 µM | 15.1 | > 100 | > 100 µM | > 100 µM | 32.8 µM | > 100 µM | 86.1 µM | > 100 µM | 89.7 µM | > 100 µM | 41.7 µM | > 100 µM |
| COc1ccc(-c2cc3c(C)nc(N)nc3n(C3CCC(OCCO)CC3)c2=O)cn1 (centres undefined) | 0.0131 µM and 0.0211 µM | 0.0735 µM and 0.147 µM | 0.0345 µM and 0.0941 µM | > 10 µM and 6.38 µM | 0.0379 µM and 0.0866 µM | 0.38 µM and 0.575 µM | 0.257 µM and 0.0805 µM | > 10 µM and 1.44 µM | 0.0362 | – | 0.0967 µM and 0.144 µM | 0.792 µM and 1.13 µM | 0.0781 µM and 0.0809 µM | 1.83 µM and 0.747 µM | 0.153 µM and 0.106 µM | > 10 µM and 8.28 µM | 0.111 µM and 0.0882 µM | 1.12 µM and 0.943 µM | 0.0501 µM and 0.0401 µM | 0.326 µM and 0.275 µM |
| O=C1CSC(c2ccccc2Cl)N1c1nnc(Cn2cnnc2)o1 (centres undefined) | 3.76 µM | 31.9 µM | 2.69 µM | 8.67 µM | 11.4 µM | > 100 µM | 3.51 µM | 19.1 µM | 19.3 | 79.1 | 12.1 µM | 29.9 µM | 3.35 µM | 13.9 µM | 19.7 µM | 44.3 µM | 7.43 µM | 21 µM | 3.38 µM | 19.5 µM |
| CC(=O)N1CCN(CCNC(=O)n2cc(-c3ccncc3)c(-c3cc(O)cc(Cl)c3)n2)CC1 | 16.6 µM | 49.2 µM | 7.79 µM | 29 µM | 13 µM | 38.1 µM | 4.78 µM | 22.5 µM | 5.93 | 24.3 | 11.7 µM | 26.7 µM | 3.28 µM | 11.9 µM | 24.3 µM | > 100 µM | 6.85 µM | 22.7 µM | 10.5 µM | 25.7 µM |
| O=C(O)/C(Cc1ccnc2ccccc12)=N\O | – | > 100 µM | – | > 100 µM | – | > 100 µM | – | > 100 µM | – | > 100 | – | > 100 µM | – | > 100 µM | – | > 100 µM | – | > 100 µM | – | > 100 µM |
| CCCc1cc(=O)n2c(C(=O)Nc3ccc(F)cc3)c(C(=O)Nc3ccc(F)cc3)sc2n1 | 87 µM | > 160 µM | > 160 µM | > 160 µM | 75.3 µM | > 160 µM | 31.3 µM | 88.1 µM | 5.27 | 18.6 | 4.8 µM | 23.8 µM | 47.1 µM | > 160 µM | 124 µM | > 160 µM | 45.5 µM | > 160 µM | > 160 µM | > 160 µM |
| N#CC1=C(N)Oc2c(ccc3ccccc23)C1c1cc(=O)oc2ccc(Cl)cc12 (centres undefined) | 0.646 µM | 24.1 µM | 0.275 µM | 1.51 µM | – | – | 0.449 µM | > 100 µM | 0.556 | 42 | 4.36 µM | > 100 µM | 1.91 µM | 6.89 µM | 4.11 µM | > 100 µM | 0.854 µM | 40.5 µM | 0.398 µM | 20.1 µM |
| C#CC1=CC(=O)C(OC)=CC1=O | – | 87.5 µM | – | 13.4 µM | – | 42.6 µM | – | 36.4 µM | – | 34 | – | 34.8 µM | – | 62 µM | – | 37.4 µM | – | 40 µM | – | > 100 µM |
| CS(=O)(=O)c1ccc(Nc2nc(N[C@H]3CCCC[C@H]3N)nc3cc[nH]c(=O)c23)cc1 | 0.891 µM | 77.6 µM | 0.533 µM | 6.6 µM | 11.7 µM | 36.3 µM | 0.68 µM | 6.03 µM | 2.04 | 23.6 | 2.81 µM | 16.3 µM | 2.48 µM | 11.8 µM | 2.03 µM | 10.4 µM | 0.857 µM | 6.7 µM | 1.91 µM | 5.84 µM |
| CCCCCCSSC(=S)N(CC)CC | 25.4 µM | > 100 µM | 18.1 µM | 52.3 µM | 16.3 µM | 36.1 µM | 0.0589 µM | 29.1 µM | 32.4 | > 100 | 17.5 µM | 39.2 µM | 20.5 µM | 38.8 µM | 28.7 µM | 92.9 µM | 15.3 µM | 33.1 µM | 17.4 µM | 51.1 µM |
| CS(=O)(=O)OCCCNCCCOS(C)(=O)=O | – | 6740 µM | – | 2540 µM | – | 4280 µM | – | 2970 µM | – | 4400 | – | 6120 µM | – | 4480 µM | – | 6440 µM | – | 3920 µM | – | 4760 µM |
| C#C[C@@]1(O)[C@@H](CO)O[C@@H](n2cc(I)c3c(N)ncnc32)[C@@H]1O | – | 0.127 µM | 0.0462 µM | 0.262 µM | – | – | 0.262 µM | > 28.5 µM | 0.0736 | 2.22 | 0.185 µM | > 100 µM | 0.0237 µM | 4.75 µM | 0.127 µM | > 100 µM | 0.0812 µM | 1.22 µM | 0.432 µM | 3.77 µM |
